Data taken from ChEMBL document CHEMBL4330120, “Identification of selective and reversible LSD1 inhibitors with anti-metastasis activity by high-throughput docking” (Bioorg Med Chem Lett, 2019).

Assays:
[1] = molecular target: Lysine-specific histone demethylase 1A (Homo sapiens, UniProt O60341)
Description: Inhibition of human N-terminal GST-tagged LSD1 isoform2 (158 to end residues) expressed in Escherichia coli using methylated peptide as substrate preincubated with substrate for 15 mins followed by enzyme addition and measured after 30 mins by amplex red and horseradish peroxidase based fluorescence assay

[2] = in vitro; conditions: human, HCT8 cells
Description: Cytotoxicity against human HCT8 cells assessed as inhibition of cell proliferation at 100 uM after 4 hrs by MTT assay relative to control

[3] = molecular target: T1, Amine oxidase [flavin-containing] B (Homo sapiens, UniProt P27338); test: biochemical
T1 sequence (P27338 whole entry): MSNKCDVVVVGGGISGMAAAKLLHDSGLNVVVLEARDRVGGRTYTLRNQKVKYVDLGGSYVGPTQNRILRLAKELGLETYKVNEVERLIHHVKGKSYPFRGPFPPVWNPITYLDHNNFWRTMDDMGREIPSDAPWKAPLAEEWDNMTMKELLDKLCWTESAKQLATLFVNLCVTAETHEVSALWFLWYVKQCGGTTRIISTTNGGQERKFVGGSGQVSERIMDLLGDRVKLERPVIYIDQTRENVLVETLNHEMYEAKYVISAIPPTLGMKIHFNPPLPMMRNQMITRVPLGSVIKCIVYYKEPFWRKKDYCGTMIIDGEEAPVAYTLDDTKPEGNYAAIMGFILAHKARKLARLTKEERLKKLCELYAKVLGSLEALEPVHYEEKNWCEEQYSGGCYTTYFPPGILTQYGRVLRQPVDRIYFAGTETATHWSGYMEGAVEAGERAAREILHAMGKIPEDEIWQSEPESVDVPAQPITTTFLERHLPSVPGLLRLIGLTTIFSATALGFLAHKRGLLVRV
Description: Inhibition of recombinant human MAOB expressed in baculovirus infected BTI insect cells using beetle luciferin as substrate after 1 hr by MAO-Glo assay

[4] = in vitro; conditions: human, SW620 cells
Description: Cytotoxicity against human SW620 cells assessed as inhibition of cell proliferation at 100 uM after 4 hrs by MTT assay relative to control

[5] = molecular target: T2, Amine oxidase [flavin-containing] A (Homo sapiens, UniProt P21397); test: biochemical
T2 sequence (P21397 whole entry): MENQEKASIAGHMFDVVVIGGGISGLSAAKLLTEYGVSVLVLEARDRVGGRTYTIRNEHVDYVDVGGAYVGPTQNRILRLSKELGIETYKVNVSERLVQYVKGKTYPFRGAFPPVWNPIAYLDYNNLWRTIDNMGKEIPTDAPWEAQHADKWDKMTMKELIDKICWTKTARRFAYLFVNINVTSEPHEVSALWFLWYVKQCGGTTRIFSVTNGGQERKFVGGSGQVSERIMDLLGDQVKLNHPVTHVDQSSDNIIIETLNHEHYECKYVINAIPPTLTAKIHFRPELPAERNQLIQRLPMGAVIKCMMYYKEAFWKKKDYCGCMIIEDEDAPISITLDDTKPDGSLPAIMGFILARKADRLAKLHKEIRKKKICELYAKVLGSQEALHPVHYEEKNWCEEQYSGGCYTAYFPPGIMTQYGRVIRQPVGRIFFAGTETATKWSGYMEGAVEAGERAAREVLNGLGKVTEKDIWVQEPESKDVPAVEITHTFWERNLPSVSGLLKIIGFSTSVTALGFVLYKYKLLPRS
Description: Inhibition of recombinant human MAOA expressed in baculovirus infected BTI insect cells using beetle luciferin as substrate after 1 hr by MAO-Glo assay

Structure (SMILES) | IC50 [1] | inhibition at 4 h, 100 µM [2] | IC50 [3] | inhibition at 4 h, 100 µM [4] | IC50 [5]
Cc1nc(-c2ccc(CN(C)Cc3cccc4cnccc34)cc2)[nH]c(=O)c1F | > 100 µM | – | – | – | –
O=C(CCC1NC(=O)NC1=O)NCCc1c[nH]c2ccccc12 (stereo not given) | – | 35% | > 200 µM | 35% | > 200 µM
